Results from patent publication US10111853B2, “Compounds, compositions, and methods for the treatment of cancers” (PLACON THERAPEUTICS, INC., priority 2012, dated 2018).

Key:
[1] = Drug load (gravimetric, GF-AAS) and encapsulation efficiency of nanoparticles; format: physicochemical; conditions: for Max DL, %: maximum drug load; for Max DL, % / Max EE, %: according to Example 11; for Max EE, %: maximum encapsulation
Procedure: The polymer composition was varied by the ratio of the PLA or PLGA polymer to PLA-PEG or PLGA-PEG copolymer, as well as the PLA molecular weight (25-109 kDa). […] The oil phase was then slowly added to the continuously stirred aqueous phase containing an emulsifier (such as polysorbate 80 a.k.a. Tween® 80) at 10/90% or 20/80% v/v oil/water ratio and a coarse emulsion was prepared using a rotor-stator homogenizer or an ultrasound bath. The course emulsion was then processed through a high-pressure homogenizer (operated at 5,000 or 10,000 psi) for N=2 or 4 passes to form a nanoemulsion. In process (2) the polymers and the drug were dissolved in an organic solvent miscible with water (such as acetone) and added slowly to a continuously stirred aqueous phase with or without a stabilizer (such as polysorbate 80). In both processes (1) and (2) the nanoemulsion formed was quenched (by 5- or 10-fold dilution with cold (0-5° C.) or room temperature deionized water) to remove the major portion of the organic solvent resulting in hardening of the emulsion droplets and formation of a nanoparticle suspension, which was then concentrated and purified with deionized water containing or not surfactants using tangential flow filtration (500 kDa MWCO, mPES membranes).
The actual drug load was determined gravimetrically by transferring 1 mL of the nanoparticle suspension to a 4 mL glass vial and drying under vacuum on a Rotavapor® to determine the amount of total remaining solids. The drug content was then determined by reconstituting the dried sample in an organic solvent (such as N′N′-dimethylformamide) and measuring the total amount of platinum using graphite furnace atomic adsorption spectroscopy (GF-AAS). Encapsulation efficiency was calculated as the ratio between the actual and the theoretical drug load. The yield was determined based on the ratio between the encapsulated and used compound amounts. In-vitro release was studied by incubating the nanoparticle suspension in phosphate buffered saline (PBS) containing a solubilizer such as 1% hydroxypropyl beta cyclodextrin for 24 h at 37° C. mixed continuously in a water shaking bath. Samples were taken at different time points and spun with an ultracentrifuge at 1,000,000×g to separate the nanoparticles from the dissolution medium. The supernatant was then analyzed using GF-AAS or HPLC to determine the active content as a function of time.

[2] = Mouse PK/PD study, tumor platinum levels by ICP-MS; set-up: species or system nude mice; conditions: in vivo, iv, 4 mg/kg
Procedure: To examine the ability of compounds to accumulate in tumors, a murine cancer model was used. Animals were inoculated with 5×10^5 H460 […] lung cancer cells via subcutaneous injection to the flank. Tumors were allowed to reach an approximate volume of ˜500 mm^3. Animals were then randomized into treatment groups of 3 animals per time point and were dosed at 4 mg/kg. The 24 hour time point was used as a benchmark across compounds.
Tumors were excised from animals and dissolved in fuming nitric acid (60% w/w) by adding four parts nitric acid to 1 part tumor w/w and heating overnight at 60 degrees Centigrade. The resulting digest was diluted 1:10 in ICP-MS analysis buffer (1% nitric acid, 2% Triton x-100), and directly introduced into the ICP-MS unit by peristaltic pump. The end dilution factor for the samples as introduced to the ICP-MS was 50×.

With `CCCCCC(=O)[O][Pt]([NH2])([NH2])([Cl])([Cl])[O]C(=O)CCCCC` [reference compound] the “Max DL, %” value [1] was 0.55% and the “Max EE, %” value [1] was 2.8%.
With `CC(C)(C)CC(C)(C)NC(=O)[O][Pt]([NH2])([NH2])([Cl])([Cl])[O]C(=O)NC(C)(C)CC(C)(C)C` [Compound 29] the “platinum levels in the tumor, nanoparticle suspension versus free compound” value [2] was “higher platinum levels in the tumors when the corresponding compound was dosed as a nanoparticle suspension than as a free compound”, the “Max DL, %” value [1] was 5.9% and the “Max EE, %” value [1] was 59%. For the same compound, the “encapsulation efficiency (in words)” value ([1]; statement on Table 4) was “increased encapsulation efficiency” and the “maximum drug loading (in words)” value ([1]; statement on Table 4) was “increased maximum drug loading”.
